Consider 3 compounds from patent publication US8735345B2, “Therapeutic composition” (Hoffmann la Roche Inc., priority 2009, dated 2014).

Experiment [1] relates to genotype 1 HCV. The experiment is described as follows: HCV RNA viral load determination (COBAS AmpliPrep/COBAS TaqMan HCV Test) in a randomized, double-blind, placebo controlled, dose ranging study. Conditions: monotherapy 750 mg, bid; after 7 days of treatment. It is filed as in vivo, human. The protocol: A randomized, double-blind, placebo controlled, dose ranging study of Compound 1a and Compound 2 in adult patients with chronic hepatitis C genotype 1 was conducted. Approximately 54 treatment naïve males and females between 18 and 65 years of age (inclusive) with genotype 1 HCV infection who had not previously been treated with an interferon or investigational HCV therapeutic agent were enrolled. Approximately an additional 20 treatment patients who had failed treatment with the current standard of care (null, partial responders and relapsers) were enrolled. […] Subjects with liver cirrhosis or incomplete/transition to cirrhosis, or other forms of liver disease, anemia, HIV or HBV infection, hepatocellular carcinoma, cardiac disease or renal disease were excluded from this particular protocol, as well as pregnant or lactating women, women of childbearing potential, and male partners of women who are pregnant or lactating.
Seven groups, Groups I, II, III, IV, V, VI and VII, of subjects were studied. Blood samples were collected at time points to determine pharmacokinetics parameters, including Tmax, Cmax, Kel, T1/2, AUC, CL/F, Vd/F and accumulation ratio.
The specifics of Groups I, II, III, IV, V, VI and VII are shown in Table 1 below and pictorially in FIGS. 2 and 3. Group I included two arms with 8 subjects in Arm 1 and 8 subjects in Arm 2. […]

Experiment [2] deals with HCV replication. The note with it: cited from earlier work.

Regarding “diisobutyl ester prodrug of β-D-2′-deoxy-2′-fluoro-2′-C-methylcytidine [Compound 1a]”, in experiment [1], the “mean log change from baseline in HCV RNA viral load” value is −1.3 log IU/mL.

Turning to `CC(C)(C)OC(=O)N[C@H]1CCCCCC=C[C@@H]2C[C@@]2(C(=O)NS(=O)(=O)C2CC2)NC(=O)[C@@H]2C[C@@H](OC(=O)N3Cc4cccc(F)c4C3)CN2C1=O` [Compound 2, (1S,4R,6S,14S,18R)-4-Fluoro-1,3-dihydro-isoindole-2-carboxylic acid 14-tert-butoxycarbonylamino-4-cyclopropanesulfonylaminocarbonyl-2,15-dioxo-3,16-diaza-tricyclo[14.3.0.04,6]nonadec-7-en-18-yl ester], the “inhibition of HCV replication” value in experiment [2] is given as “effective in inhibiting HCV replication”. Take `C[C@@]1(F)[C@H](O)[C@@H](CO)O[C@H]1n1ccc(N)nc1=O` [Compound 1, β-D-2′-deoxy-2′-fluoro-2′-C-methylcytidine]: the “inhibition of HCV replication” value in experiment [2] is given as “effective in inhibiting HCV replication”.
